Tests used:
T. cruzi (Brazil strain) [1] = experiment: Mouse cure assays (daily oral treatment, cyclophosphamide immunosuppression, hemoculture, skeletal muscle qPCR); type: in vivo, Trypanosoma cruzi
Protocol: (§1) Cure assays: Male or female C57BL/6 mice were intraperitoneally infected with 10^4 trypomastigotes of the Brazil strain. Mouse infection was confirmed at 25-30 dpi by detection of CD8^+ T cells specific against the T. cruzi TSKb20 peptide in blood (Martin, et al., PLoS pathogens 2, e77 (2006)). Compounds resuspended in 1% carboxymethyl cellulose and 0.1% Tween 80, were administered daily by gavage at the specified concentrations. In order to optimally detect persistent infection, immune responses in the mice were suppressed by intraperitoneal injection of four doses of cyclophosphamide every 2-3 days (200 mg/kg/day), beginning one week after the end of therapeutic treatment. At the end of the immunosuppression regimen, peripheral blood was checked under light microscope for parasites and cultured in LDNT media (Bustamante, et al., The Journal of infectious diseases 209, 150-162 (2014)). […] In vivo killing time assays: C57BL/6 mice were infected with 2.5×10^5 Luciferase-expressing T. cruzi (Brazil strain) in the foot pads, and two days later one oral dose of AN14353 (25 mg/kg) was administered. The bioluminescent signal in the feet after i.p. injection of D-luciferin (PerkinElmer; 250 mg/kg) was measured in a Lumina II IVIS imager (PerkinElmer). Low dose short treatment: Hairless mice (SKH-1) were infected intraperitoneally with 5×10^4 Luciferase expressing T. cruzi (Colombiana strain) and orally treated from 12 to 22 dpi with 1, 2.5 or 5 mg/kg of AN16109 or AN15368. Bioluminiscence signal of the whole body was measure after D-luciferin injection in a Lumina II IVIS in vivo imager equipped with the Living Imaging 4.0 software (PerkinElmer).

[2] = test system: T. cruzi serine carboxypeptidase (CBP); experiment: Sensitivity of serine carboxypeptidase (CBP) knockout T. cruzi amastigotes; type: cell-based, Trypanosoma cruzi
Protocol: The in vitro anti-T. cruzi amastiogote activity assay was performed and optimized based on the protocol described previously (Canavaci, et al., PLoS neglected tropical diseases 4, e740 (2010)). The change in tdTomato fluorescence intensity was determined as a measurement of growth over 72 hours of culture. For assaying drug effects on extracellular amastigotes, trypomastigotes were collected from infected Vero cell cultures and converted in acidic media as previously described (Tomlinson, et al., Parasitology 110 (Pt 5), 547-554 (1995)). Amastigotes (50,000/well) were incubated with 2-fold serial dilutions of compounds for 48 hours. The ATP production was used as an indication of growth in this case, and was measured by ATPlite Luminescence ATP Detection Assay System (PerkinElmer). Both fluorescence and luminescence were read using a BioTek Synergy Hybrid Multi-Mode reader equipped with the software Gene5 v 2.0 (BioTek). […]
The CBPs knockout was produced using ribonucleoprotein (RNP) complexes as previously described (Soares Medeiros, et al., mBio 8 (2017)). Briefly, Brazil tdTomato strain epimastigotes were electroporated with RNP complexes containing SaCas9 and an sgRNA targeting CBP gene TcBrA4_0048170, plus a repair template containing stop codons in all three reading frames and the M13 sequence for use as a PCR anchor. […]

[3] = test system: mammalian enzymes, receptors and ion channels; experiment: Safety pharmacology: affinity for a broad array of mammalian enzymes, receptors and ion channels; type: binding
Standard Ames study = type: cell-based
cytochrome P450 enzymes = experiment: Inhibition of representative cytochrome P450 enzymes; type: in vitro ADME; settings: 10 uM
[4] = High dose 7-day toxicology studies in rats; type: in vivo; settings: for dose proportionality of exposure: high dose 7-day toxicology studies, oral; for NOAEL dose: allometric scaling from rats
[5] = test system: T. cruzi extracellular amastigotes; experiment: Extracellular amastigote assay (ATPlite ATP production, 48 hours); type: cell-based, Trypanosoma cruzi; settings: in words
Protocol: The in vitro anti-T. cruzi amastiogote activity assay was performed and optimized based on the protocol described previously (Canavaci, et al., PLoS neglected tropical diseases 4, e740 (2010)). The change in tdTomato fluorescence intensity was determined as a measurement of growth over 72 hours of culture. For assaying drug effects on extracellular amastigotes, trypomastigotes were collected from infected Vero cell cultures and converted in acidic media as previously described (Tomlinson, et al., Parasitology 110 (Pt 5), 547-554 (1995)). Amastigotes (50,000/well) were incubated with 2-fold serial dilutions of compounds for 48 hours. The ATP production was used as an indication of growth in this case, and was measured by ATPlite Luminescence ATP Detection Assay System (PerkinElmer). Both fluorescence and luminescence were read using a BioTek Synergy Hybrid Multi-Mode reader equipped with the software Gene5 v 2.0 (BioTek). The dose-response curve was generated by […] analysis with GraphPad Prism v9.4.0 (GraphPad Software). IC50 was determined as the drug concentration that was required to inhibit 50% of growth compared to that of parasites with no drug exposure.

T. cruzi (CL strain) = experiment: Rapid in vivo assay: mouse footpad infection with tdTomato-expressing T. cruzi, single oral dose; design: species or system Trypanosoma cruzi; settings: mice, reduced doses (FIG. 1B)
Protocol: Fluorescent intensity of the feet was measured at 2 dpi before compound administration and at 4 dpi in the Maestro in vivo imaging system equipped with the software Maestro 2.1.0 (CRi) as previously described (Fleau, et al., J Med Chem 62, 10362-10375 (2019)). The proliferation index was estimated as PI=[(T4d−T2d)/(mUnt4d−mUnt2d)]*100; where T4d and T2d are the fluorescence intensity of the feet of the treated animals at days 4 and 2 post-infection respectively; mUnt4d and mUnt2d are the average fluorescence intensity of the feet of the untreated animals at 4 and 2 dpi respectively.

T. cruzi (Brazil strain) [6] = experiment: In vivo killing time assay: mouse footpads, Luciferase-expressing T. cruzi; design: species or system Trypanosoma cruzi; settings: mice, single oral dose 25 mg/kg (FIG. 1C)
Protocol: as §1, with “Low dose short treatment: Hairless mice (SKH-1) were infected intraperitoneally with 5×10^4 Luciferase expressing T. cruzi (Colombiana strain) and orally treated from 12 to 22 dpi with 1, 2.5 or 5 mg/kg of AN16109 or AN15368. Bioluminiscence signal of the whole body was measure after D-luciferin injection in a Lumina II IVIS in vivo imager equipped with the Living Imaging 4.0 software (PerkinElmer).” left out

[7] = Pharmacokinetics in mice (intravenous and oral); type: in vivo; settings: in words

Compound: Cc1c(C(=O)N[C@H](C(=O)OCC2CCOCC2)C(C)C)ccc2c1B(O)OC2 [AN15368]
- cure of T. cruzi infection in mice (T. cruzi (Brazil strain) [1]; in words (FIGS. 3A-3E)): cures T. cruzi infection in mice
- minimal efficacious dose (T. cruzi (Brazil strain) [1]; mice (FIG. 3E)): 2.5 mg/kg
- increased resistance after disruption of CBPs ([2]; intracellular amastigotes, TcCBP KO vs WT (FIG. 5E)): 1000 ×
- affinity for a broad array of mammalian enzymes, receptors and ion channels [3]: little to no affinity
- genotoxicity, Ames (Standard Ames study): non-genotoxic
- inhibition of representative cytochrome P450 enzymes (cytochrome P450 enzymes): did not demonstrate significant inhibition
- dose proportionality of exposure [4]: good dose proportional exposure
- NOAEL dose ([4]; humans): 19.4 mg/kg
- NOAEL dose ([4]; monkeys): 60.5 mg/kg
- NOAEL ([4]; rats): 120 mg/kg
- drug accumulation between the first and seventh days ([4]; rats): no evidence of drug accumulation
- total plasma exposure (AUC0-24 h) ([4]; rats, 120 mg/kg/day): approximately 30,000 ng*hr/mL
- effects on hematology and clinical chemistry ([4]; rats, 120 mg/kg/day or lower): none
- effects on hematology and clinical chemistry ([4]; rats, 150 mg/kg): modest effects

Compound: Cc1c(C(=O)N[C@H](C(=O)OCc2ccc(F)c(F)c2)C(C)C)ccc2c1B(O)OC2 [AN14353]
- sensitivity of extracellular amastigotes [5]: high sensitivity
- reduction of established focal footpad infection by a single oral dose (T. cruzi (CL strain)): activity at reduced doses
- in vivo trypanocidal activity (bioluminescence of feet over 72 hrs) (T. cruzi (Brazil strain) [6]): rapid in vivo trypanocidal activity
- resolution of infections in immunodeficient mice (T. cruzi (Brazil strain) [1]; IFN-gamma deficient mice, 25 mg/kg, 40 days (FIG. 1E)): consistently resolve
- resolution of established T. cruzi infections (T. cruzi (Brazil strain) [1]; wild-type mice, 25 mg/kg, 40 day treatment (FIG. 1D)): consistently resolve established T. cruzi infections
- decrease of in vitro sensitivity of T. cruzi amastigotes after disruption of serine carboxypeptidases ([2]; CBP KO vs wild type (FIG. 2C)): up to 100 fold
- absorption (dose proportionality of exposure in vivo) [7]: solubility-limited absorption
- affinity for a broad array of mammalian enzymes, receptors and ion channels [3]: little to no affinity
- genotoxicity, Ames (Standard Ames study): non-genotoxic
- inhibition of representative cytochrome P450 enzymes (cytochrome P450 enzymes): did not demonstrate significant inhibition
- dose proportionality of exposure [4]: non-dose proportional exposure

Reference: patent US20240133884A1, “COMPOSITIONS AND METHODS FOR DETECTING TRYPANOSOMA CRUZI INFECTION” (University of Georgia Research Foundation, Inc., priority 2022, published 2024)
